From patent US20100172854A1, “ANTIBACTERIAL FORMULATIONS” (priority 2007, published 2010)
≈ marks a conversion by molar mass, not a printed value.

Assays:
Assay type in all cases: cell-based
[1] = test system: S. epidermidis NCTC 11047; test: MBC assay
Procedure: (§1) The staphylococci were cultured and maintained on Mueller-Hinton Medium (agar and broth) at pH 7.2; cultures were incubated aerobically at 37° C. for 19-20 hours.
(§2) This assay, normally carried out after an MIC assay, determines the minimum concentration of a compound that is lethal to the micro-organism being tested.
(§3) These samples were then individually sub-cultured on antibiotic-free agar medium, under the incubation conditions described above. Following incubation they were examined visually for microbial growth.

[2] = test system: S. saprophyticus NCTC 7292; test: MBC assay
Procedure: as §1, §2, §3

[3] = test system: Staphylococcus aureus ATCC 12600; test: MBC assay
Procedure: as §1, §2, §3

[4] = test system: Staphylococcus aureus ATCC 29213; test: MBC assay; details: S. aureus ATCC 29213
Procedure: as §1, §2, §3

[5] = test system: Staphylococcus auricularis ATCC 33753; test: MBC assay
Procedure: as §1, §2, §3

[6] = test system: Staphylococcus capitis ATCC 27840; test: MBC assay
Procedure: as §1, §2, §3

[7] = test system: Staphylococcus cohnii ATCC 29974; test: MBC assay
Procedure: as §1, §2, §3

[8] = test system: Staphylococcus haemolyticus ATCC 29970; test: MBC assay
Procedure: as §1, §2, §3

[9] = test system: Staphylococcus hominis ATCC 27844; test: MBC assay
Procedure: as §1, §2, §3

[10] = test system: Staphylococcus simulans ATCC 27848; test: MBC assay
Procedure: as §1, §2, §3

[11] = test system: Staphylococcus warneri ATCC 27836; test: MBC assay
Procedure: as §1, §2, §3

[12] = test system: Staphylococcus xylosus ATCC 29971; test: MBC assay
Procedure: as §1, §2, §3

[13] = test system: Actinomyces naeslundii ATCC 12104; test: MIC assay
Procedure: (§4) This is a standard international method for quantitatively assessing the antimicrobial activity of a compound in a liquid medium. The method used a sterile 96-well microtitre plate, capable of holding about 200 μl of liquid per well. The wells contained liquid culture medium and ranges of decreasing concentrations of the relevant test compound in doubling dilutions (e.g. 1000, 500, 250, 125 . . . μg/ml, etc. down to 0.49 μg/ml). The culture media were as described above.
(§5) The wells were inoculated with a liquid suspension of freshly grown micro-organism and incubated under the conditions described above. After incubation, the microtitre plate was examined visually (with the aid of a light box) for cloudiness in each well, which would indicate microbial growth. The MIC value was recorded as the lowest concentration of test compound required to inhibit microbial growth, i.e. the lowest concentration for which the liquid in the well remained clear.
(§6) The assays included both negative (culture medium with no micro-organisms) and positive (culture medium plus diluting solvent plus micro-organism) controls.

[14] = test system: Bacillus cereus ATCC 11778; test: MIC assay
Procedure: as §4, §5, §6

[15] = test system: Clostridium difficile ATCC 7000057; test: MIC assay; details: Clostridioides difficile, ATCC7000057
Procedure: as §4, §5, §6

[16] = test system: Clostridium sporogenes ATCC 3584; test: MIC assay; details: ATCC3584
Procedure: as §4, §5, §6

[17] = test system: Corynebacterium mucifaciens ATCC 700355; test: MIC assay; details: Corynebacterium mucifaciens, ATCC700355
Procedure: as §4, §5, §6

[18] = test system: Enterococcus faecalis ATCC 29212; test: MIC assay; details: Enterococcus faecalis, ATCC29212
Procedure: as §4, §5, §6

[19] = test system: Gardnerella vaginalis ATCC 14018; test: MIC assay; details: ATCC14018
Procedure: as §4, §5, §6

[20] = test system: Listeria monocytogenes ATCC 15313; test: MIC assay
Procedure: as §4, §5, §6

[21] = test system: Prevotella nigrescens ATCC 33563; test: MIC assay; details: ATCC33563
Procedure: as §4, §5, §6

[22] = test system: Streptococcus pyogenes ATCC 12344; test: MIC assay; details: ATCC12344; Streptococcus pyogenes ATCC 12344
Procedure: as §4, §5, §6

[23] = test system: Streptococcus sobrinus ATCC 33478; test: MIC assay; details: ATCC33478
Procedure: as §4, §5, §6

[24] = test system: Porphyromonas gingivalis ATCC 53978; test: MBC assay
Procedure: (§7) The P. gingivalis strains were cultured and maintained on Wilkins-Chalgren Anaerobe Medium (agar and broth) at pH 7.0; all cultures were incubated anaerobically at 37° C. for 5-7 days.
as §2, §3

[25] = test system: Porphyromonas gingivalis ATCC BAA-308; test: MBC assay
Procedure: as §7, §2, §3

[26] = test system: Porphyromonas gingivalis NCTC 11834; test: MBC assay
Procedure: as §7, §2, §3

Cc1cc(Cc2cc(C)cc(C(C)(C)C)c2O)c(O)c(C(C)(C)C)c1 [AO 2246, 2,2′-methylene-bis(4-methyl-6-tert-butylphenol)]
MIC/MBC Ratio [1]: 0.5 | MBC ([1]; Staphylococcus epidermidis, NCTC11047): 7.8 µg/mL (≈ 22.9 µM) | MIC/MBC Ratio [2]: 1 | MBC ([2]; Staphylococcus saprophyticus, NCTC7292): 3.9 µg/mL (≈ 11.5 µM) | MIC/MBC Ratio [3]: 0.06 | MBC ([3]; ATCC12600): 15.6 µg/mL (≈ 45.8 µM) | MIC/MBC Ratio [4]: 0.5 | MBC ([4]; Staphylococcus aureus, ATCC29213): 7.8 µg/mL (≈ 22.9 µM) | MIC/MBC Ratio [5]: 0.5 | MBC ([5]; ATCC33753): 3.9 µg/mL (≈ 11.5 µM) | MIC/MBC Ratio [6]: 0.25 | MBC ([6]; ATCC27840): 15.6 µg/mL (≈ 45.8 µM) | MIC/MBC Ratio [7]: 1 | MBC ([7]; ATCC29974): 3.9 µg/mL (≈ 11.5 µM) | MIC/MBC Ratio [8]: 1 | MBC ([8]; ATCC29970): 3.9 µg/mL (≈ 11.5 µM) | MIC/MBC Ratio [9]: 0.25 | MBC ([9]; ATCC27844): 31.2 µg/mL (≈ 91.8 µM) | MIC/MBC Ratio [10]: 0.5 | MBC ([10]; ATCC27848): 31.2 µg/mL (≈ 91.8 µM) | MIC/MBC Ratio [11]: <0.5 | MBC ([11]; ATCC27836): > 31.2 µg/mL | MIC/MBC Ratio [12]: 1 | MBC ([12]; ATCC29971): 3.9 µg/mL (≈ 11.5 µM) | MIC [13]: 1.95 µg/mL (≈ 5.73 µM) | MIC [14]: 1.95 µg/mL (≈ 5.73 µM) | MIC [15]: 3.9 µg/mL (≈ 11.5 µM) | MIC [16]: 3.9 µg/mL (≈ 11.5 µM) | MIC [17]: 1.95 µg/mL (≈ 5.73 µM) | MIC [18]: 1.95 µg/mL (≈ 5.73 µM) | MIC [19]: 15.6 µg/mL (≈ 45.8 µM) | MIC [20]: 1.95 µg/mL (≈ 5.73 µM) | MIC [21]: 7.8 µg/mL (≈ 22.9 µM) | MIC [22]: 0.98 µg/mL (≈ 2.88 µM) | MIC [23]: 15.6 µg/mL (≈ 45.8 µM) | MBC [24]: 1.95 µg/mL (≈ 5.73 µM) | MIC/MBC Ratio [24]: 0.5 | MIC/MBC Ratio [25]: 1 | MBC ([25]; ATCCBAA308): 3.9 µg/mL (≈ 11.5 µM) | MIC/MBC Ratio [26]: 1 | MBC ([26]; NCTC11834): 3.9 µg/mL (≈ 11.5 µM)
